Patent US6495348B1, “Mitomycin biosynthetic gene cluster” (priority 1993, dated 2002)

Key:
S. lavendulae wild-type = assay: MC resistance of S. lavendulae, plate count; format: cell-based, Streptomyces lavendulae
Source text: To establish a physiological role for MCT in S. lavendulae, the corresponding gene (mct) was inactivated by insertion of the aphII gene from transposon Tn5 to give pDHS7704.

PJS103 = tested on: PJS103
Experimental: Construction of mct-mrd co-expression plasmid. […] The fragment contained the mrd gene under the control of the T7 promoter, including transcriptional terminator sequences (rrnB T1) upstream and downstream of mrd.
The cultures were grown overnight at 37° C. and colony-forming units (CFUS) were determined.
Co-expression of mct and mrd in E. coli. To address the notion that MRD and MCT proteins participate as components of a binding protein-dependent drug export system, the mct and mrd genes were co-expressed in E. coli.

| Compound | MC resistance level (S. lavendulae wild-type) | resistance to mitomycin B (PJS103) |
| --- | --- | --- |
| CO[C@@]12[C@H](COC(N)=O)C3=C(C(=O)C(C)=C(N)C3=O)N1C[C@@H]1N[C@@H]12 [MC, mitomycin C] | > 150 µg/mL | – |
| COC1=C(C)C(=O)C2=C(C1=O)[C@H](COC(N)=O)[C@@]1(O)[C@@H]3[C@H](CN21)N3C (some centres unmarked) [Mitomycin B, mitomycin B] | – | high-level resistance |
